Patent US20250183494A1, “Standardized Bioflavonoid Composition for Regulation of Homeostasis of Host Defense Mechanism” (priority 2021, published 2025)
Several values for one entry are separate records, joined by “and”; a condition that tells them apart may be missing. Identical values can stand only once.

How the values were obtained:
[1] = tested on: LPS-induced endotoxemia and sepsis; experiment: LPS-induced sepsis model, survival (UP446 study); assay type: in vivo, CD-1 mice
From the text: This model used survival rate of animals as the end point measurement (Wang et al., 1999). Lipopolysaccharide (LPS) is an integral component of the outer membrane of gram-negative bacteria and a major contributing factor in the initiation of a generalized inflammatory process that may lead to endotoxin shock. It is a state mediated principally by macrophages/monocytes and is attributed to excessive production of several early phase cytokines such as TNF-α, IL-1, IL-6 and gamma interferon (IFN-γ) as well as a late-stage mediator, HMGB1. Following a median lethal dose of LPS (25 mg/kg) administration dissolved in phosphate-buffered saline (PBS; Lifeline, Lot #07641), animals develop endotoxemia and HMGB1 would be detected in the serum at 8 hours and reach to a peak and plateau levels from 16 to 32 hours after LPS. If untreated, mice would start to die within 24 hours. In the current study, we monitored the mice for 4 days after LPS injection. […] The following groups were included in the study:
In this model, mice were pretreated with bioflavonoid composition—UP446, illustrated in the Example 4, for a week (7 days) before lethal dose intraperitoneal injection of LPS (E. coli, 055:B5; Sigma, St. Louis, MO; Lot #081275) at 25 mg/kg with a 10 mL/kg PBS volume. Animals were observed hourly. Given the fact that sodium butyrate improved LPS-induced injury in mice through suppression of HMGB1 release, we chose this compound as a positive control for our study (Li et al., 2018).

[2] = tested on: LPS-induced sepsis; experiment: LPS-induced sepsis model, composition vs constituents, Colby synergy; assay type: in vivo, CD-1 mice
Procedure: On the 8th day, mice were injected intraperitoneally (i.p.) with 25 mg/kg LPS dissolved in PBS at 10 mL/kg. Mice in the UP894-II-treated group received a daily dose of UP894-II at 250 mg/kg. All mice continued to receive the treatment daily for the duration of study, which was completed on the 6th day post LPS injection. Following a median lethal dose of LPS (25 mg/kg) by i.p. administration, animals are expected to develop sepsis within a few hours. If untreated, mice would start to die within 24 hours. Animals were observed hourly. In the current study, we monitored the mice for 6 days after LPS injection.
For the blending of these plant extracts to have unexpected synergy, the observed inhibition needs to be greater than the calculated value.
The LPS-induced survival study was utilized to evaluate possible synergy or unexpected effects of extracts from Scutellaria and Acacia, when formulated together in a specific ratio, using Colby's method.

[3] = tested on: TNF-α; experiment: LPS-induced acute lung injury, serum TNF-α ELISA; assay type: in vivo, Sprague Dawley rats; details: UP446 250 mg/kg, SB 500 mg/kg
Procedure: The presence of TNF-α in undiluted rat serum was measured using the rat TNF-α Quantikine ELISA kit from RandD Systems (product #: RTA00) as follows: undiluted serum was added to a microplate coated with TNF-α antibody. […] The washing was repeated, and enzyme substrate was added to the plate.

[4] = tested on: IL-1β; experiment: LPS-induced acute lung injury, serum IL-1β ELISA; assay type: in vivo, Sprague Dawley rats; details: UP446 250 mg/kg, SB 500 mg/kg
Procedure: The presence of IL-1β in undiluted rat serum was measured using the Rat IL-1β Quantikine ELISA kit from RandD Systems (product #: RLB00) as follows: undiluted serum was added to a microplate coated with IL-1β antibody. […] The washing was repeated, and enzyme substrate was added to the plate.

[5] = tested on: LPS-induced acute lung injury; experiment: LPS-induced acute lung injury, lung histopathology (H&E); assay type: in vivo, Sprague Dawley rats; details: UP446 high dose 250 mg/kg, Sodium Butyrate 500 mg/kg
Procedure: The severity of lung damage as a result of intratracheal LPS was assessed using HandE-stained lung tissue. The left lobe of the lung was used for the histopathology analysis.

[6] = cumulative, LPS 25 mg/kg i.p., UP446 250, Sodium Butyrate 500 mg/kg oral, N=8
[7] = SB 500, UP894-II 250, RM405 200, RM406 50 mg/kg
[8] = SB 500, UP894-II 250, RM405 200, RM406 50 mg/kg, listed as SB
[9] = per interval, SB 500, UP894-II 250, RM405 200, RM406 50 mg/kg oral, N=13

CCCC(=O)[O-].[Na+] [Sodium Butyrate]
Survival rate ([1]; 48 hours after LPS injection, UP446 250, SB 500 mg/kg): half of the animals were deceased
# of Death after LPS, 24 hr [1, 6]: 2
# of Death after LPS, 32 hr [1, 6]: 3
# of Death after LPS, 34 hr [1, 6]: 3
# of Death after LPS, 48 hr [1, 6]: 4
# of Death after LPS, 58 hr [1, 6]: 4
# of Death after LPS, 72 hr [1, 6]: 4
# of Death after LPS, 82 hr [1, 6]: 4
Mortality rate, 0 hr [2, 7]: 0.00%
Mortality rate, 24 hr post LPS [2, 7]: 15.38%
Mortality rate, 36 hr post LPS [2, 7]: 46.15%
Mortality rate, 48 hr post LPS [2, 7]: 53.85%
Mortality rate, 60 hr post LPS [2, 7]: 61.54%
Mortality rate, 72 hr post LPS [2, 7]: 61.54%
Mortality rate, 96 hr post LPS [2, 7]: 69.23%
Mortality rate, 120 hr post LPS [2, 7]: 69.23%
Mortality rate, 144 hr post LPS (end of observation) [2, 7]: 69.23%
Survival rate, 0 hr [2, 7]: 100.0%
Survival rate, 24 hr post LPS [2, 7]: 84.6%
Survival rate, 48 hr post LPS [2, 7]: 46.2%
Survival rate, 60 hr post LPS [2, 7]: 38.5%
Survival rate, 96 hr post LPS [2, 7]: 30.8%
Survival rate, 120 hr post LPS [2, 7]: 30.8%
Survival rate, 144 hr post LPS (end of observation) [2, 7]: 30.8%
Survival rate, 36 hr post LPS [2, 8]: 53.9% and 53.8%
Survival rate, 72 hr post LPS [2, 8]: 38.5%
Number of deceased animals post LPS, 24 hours [2, 9]: 2
Number of deceased animals post LPS, 36 hours [2, 9]: 4
Number of deceased animals post LPS, 48 hours [2, 9]: 1
Number of deceased animals post LPS, 60 hours [2, 9]: 1
Number of deceased animals post LPS, 72 hours [2, 9]: 0
Number of deceased animals post LPS, 96 hours [2, 9]: 1
Number of deceased animals post LPS, 120 hours [2, 9]: 0
Number of deceased animals post LPS, 144 hours [2, 9]: 0
Survived ([2]; through 144 hours post LPS, N=13): 4
Reduction in serum TNF-α level vs vehicle control [3]: 67.9%
Reduction in serum IL-1β level vs vehicle [4]: 65.3%
Infiltration of PMN cell, score 0-4 [5]: 2.75 ± 0.78
Overall Lung Damage Severity, score 0-4 [5]: 3.05 ± 0.42
Pulmonary Edema, score 0-4 [5]: 2.35 ± 0.95
